{"source": "patent US20080317769A1", "about": "“Vaccine Composition Comprising Alpha-Galactosylceramide as an Adjuvant For Intranasal Administration” (priority 2005, published 2008)", "key": {"[1]": {"test_system": "β-galactosidase-specific antibody response", "test": "β-galactosidase-specific antibody response after intranasal Ad-LacZ with αGalCer", "type": "in vivo", "conditions": "Balb/c mice; 10^6 pfu Ad-LacZ + 0.125 μg αGalCer intranasal, twice at two-week intervals; vs vehicle alone or Ad-LacZ alone", "method": "Balb/c mice were immunized with 10^6 pfu of replication-deficient live adenovirus harboring beta-galactosidase gene (Ad-LacZ) (Viromed, Korea) alone or together with 0.125 μg of αGalCer by the intranasal administration, two times at two-week intervals. One week after the final immunization, the nasal wash, the lung wash and serum were separated, by the same manner as described in Example 1, to measure β-galactosidase-specific antibody response. In addition, to measure CTL activity, spleen cells were stimulated by 2.5 μg/mL of β-galactosidase for 5 days and IFN-γ-producing CD8+ T cells were examined by intracellular cytokine staining according to the procedure as described in Example <4-2>."}, "[2]": {"test_system": "IFN-γ and IL-4 production", "test": "IFN-γ and IL-4 production of spleen and CLN cells cultured with inactive PR8", "type": "in vivo", "conditions": "Balb/c mice; inactivated PR8 + αGalCer intranasal; cells cultured with inactive PR8 for 5 days", "method": "To examine the role of αGalCer as an adjuvant of a killed virus, influenza virus A/PR/8/34 (PR8), which was inactivated with formalin, was used as an antigen to examine the anti-virus immune response. Balb/c mice were immunized with indicated amounts (1 μg, 10 μg) of inactivated PR8 alone or together with αGalCer by the intranasal administration twice at two-week intervals. Two weeks after the final immunization, the mice were sacrificed and following experiments were performed.\nThe supernatants were obtained and the levels of IFN-γ and IL-4 therein were measured by the same manner as described in Example 2."}, "[3]": {"conditions": "dose escalation study, 50-4800 μg/m^2; cited from earlier work"}, "[4]": {"test_system": "OT1 cells (OVA specific CD8+ T cells)", "test": "Intracellular IL-2 and IFN-γ of OT1 cells after OVA257-264 peptide stimulation", "type": "in vivo, mouse", "conditions": "OVA + 2.0 μg αGalCer intranasal vs OVA alone; 5 μM OVA257-264 peptide for 6 hours", "method": "To confirm whether the activated T-cells were differentiated into fully functional CTL, 2×10^6/ml of cells were further stimulated with 5 μM of OVA257-264 peptide for 6 hours, by the same manner as described in Example 4, and then intracellular IL-2 and IFN-γ levels were measured by using APC-conjugated IL-2 (Clone JES6-5H4, Biolegend Inc., USA) and APC-conjugated IFN-γ mAb (Clone XMG1.2 Biolegend Inc., USA)."}, "[5]": {"test_system": "influenza virus A/PR/8/34", "set-up": "species or system Balb/c mice", "conditions": "mouse, in vivo"}, "[6]": {"conditions": "rodents and apes; cited from earlier work"}, "[7]": {"conditions": "mouse treated with 2200 μg/Kg of αGalCer; cited from earlier work"}, "[8]": {"test_system": "IFN-γ-producing CD8+ T cells", "test": "IFN-γ-producing CD8+ T cells by intracellular cytokine staining, Balb/c mice, OVA", "type": "in vivo", "conditions": "splenocytes cultured 4 days with 500 μg/ml OVA, with the increase of αGalCer concentration", "method": "OVA dose not include an epitope peptide binding to a MHC class I molecule in Balb/c mouse. So, to investigate cytotoxic activity induced by αGalCer adjuvant in the Balb/c mouse, the numbers of IFN-γ-producing CD8+ T cells were measured (FIG. 11). Particularly, the cells (2×10^6 cells/ml) were cultured for 4 days with 500 μg/ml of OVA, to which 1 μl/ml of GolgiPug™ (BD Pharmigen, USA) was added 6 hours before termination of the culture. Then, staining was performed by using FITC-conjugated CD3 mAb (Clone 145-2C11, Biolegend Inc, USA), PE-conjugated CD8 mAb (Clone 53-6.7, Biolegend Inc, USA) and APC-conjugated IFN-γ mAb (Clone XMG1.2, Biolegend Inc, USA). Intracellular staining was performed with BD Cytofix/Cytoperm Plus™ (BD Pharmigen, USA) according to the manufacturer's instruction, and the stained cells were analyzed with FACSCalibur (BD Bioscience, USA) and CellQuest software (BD Bioscience, USA)."}}, "data": [{"smiles": "CCCCCCCCCCCCCCCCCCCCCCCCCC(=O)N[C@@H](CO[C@H]1O[C@H](CO)[C@H](O)[C@H](O)[C@H]1O)[C@H](O)[C@H](O)CCCCCCCCCCCCCC", "note": "[αGalCer, alpha-galactosylceramide]", "values": [{"measurement": "β-galactosidase-specific IgG antibody in serum", "setting": "[1]", "value": "higher levels"}, {"measurement": "β-galactosidase-specific S-IgA antibody in the nasal wash and the lung wash", "setting": "[1]", "value": "higher levels"}, {"measurement": "levels of Th1 cytokine IFN-γ and Th2 cytokine IL-4 in spleen and CLN", "setting": "[2]", "value": "significantly increased"}, {"measurement": "dose-limiting toxicity", "setting": "[3]", "value": "does not cause dose-limiting toxicity"}, {"measurement": "levels of OT1 cells secreting IL-2 and IFN-γ", "setting": "[4]", "value": "higher"}, {"measurement": "weight loss recovery after virus infection", "setting": "[5]", "value": "rapid rate of weight loss recovery"}, {"measurement": "toxicity", "setting": "[6]", "value": "seems not to induce toxicity"}, {"measurement": "side effects", "setting": "[7]", "value": "no side effects"}, {"measurement": "numbers of IFN-γ-producing CD8+ T cells, relation to αGalCer concentration", "setting": "[8]", "value": "decreased"}]}]}
